The NIST ThermoML archive (doi:10.1016/j.jct.2016.07.008)

Test: xn = mol fraction of the nth substance listed
Details: Liquid, Vibrating wire viscometry

CC(C)CC(C)(C)C [2,2,4-trimethylpentane] + CCCCO
viscosity [mPa·s]
Details | x2 = 0.3002 | x2 = 0.5003 | x2 = 0.8
333.15 K, 100 kPa | 0.3855 | 0.4739 | 0.7766
333.15 K, 1000 kPa | 0.3922 | 0.4756 | 0.7891
333.15 K, 5000 kPa | 0.4188 | 0.5003 | 0.8182
333.15 K, 10000 kPa | 0.4439 | 0.5334 | 0.868
333.15 K, 20000 kPa | 0.4973 | 0.5894 | 0.9602
333.15 K, 30000 kPa | 0.552 | 0.6494 | 1.04
333.15 K, 40000 kPa | 0.6073 | 0.7134 | 1.132
333.15 K, 50000 kPa | 0.6677 | 0.7814 | 1.232
333.15 K, 60000 kPa | 0.7297 | 0.8534 | 1.328
333.15 K, 70000 kPa | 0.7944 | 0.9294 | 1.419
333.15 K, 80000 kPa | 0.857 | 1.009 | 1.531
333.15 K, 100000 kPa | 0.9892 | 1.181 | 1.735
333.15 K, 120000 kPa | 1.133 | 1.369 | 1.973
333.15 K, 140000 kPa | 1.279 | 1.573 | 2.212
353.15 K, 100 kPa | 0.3085 | 0.3658 | 0.5523
353.15 K, 1000 kPa | 0.3131 | 0.3715 | 0.5621
353.15 K, 5000 kPa | 0.3362 | 0.3955 | 0.5811
353.15 K, 10000 kPa | 0.3574 | 0.4195 | 0.6183
353.15 K, 20000 kPa | 0.3982 | 0.4654 | 0.6708
353.15 K, 30000 kPa | 0.4475 | 0.5151 | 0.7334
353.15 K, 40000 kPa | 0.491 | 0.5714 | 0.793
353.15 K, 50000 kPa | 0.5403 | 0.6195 | 0.8609
353.15 K, 60000 kPa | 0.592 | 0.679 | 0.9278
353.15 K, 70000 kPa | 0.6322 | 0.7319 | 0.9984
353.15 K, 80000 kPa | 0.6788 | 0.7953 | 1.069
353.15 K, 100000 kPa | 0.7915 | 0.9151 | 1.203
353.15 K, 120000 kPa | 0.8951 | 1.026 | 1.365
353.15 K, 140000 kPa | 1.007 | 1.14 | 1.526
